From PMC11294565, “Structural insights into strigolactone catabolism by carboxylesterases reveal a conserved conformational regulation” (Nature Communications, 2024)

How the values were obtained:
[1] = molecular target: CXE15^ΔNTH (Arabidopsis thaliana, UniProt Q9FG13); assay: fluorescence hydrolysis assay, Michaelis-Menten fit; format: biochemical; settings: 50 mM MES pH 6.0, 250 mM NaCl, 1 mM DTT; 2 μM enzyme; no NTH peptide added
[2] = molecular target: T1, AtCXE15 (Arabidopsis thaliana, UniProt Q9FG13); assay: as above; format: biochemical; settings: 50 mM MES pH 6.0, 250 mM NaCl, 1 mM DTT; 1 μM enzyme
T1 construct: gene CXE15; full length (residues 1-329; NTH cap 1-21, core 32-329), E. coli BL21(DE3), 6xHis-SUMO tag cleaved off
T1 sequence (Q9FG13 whole entry, the tested form may be a part): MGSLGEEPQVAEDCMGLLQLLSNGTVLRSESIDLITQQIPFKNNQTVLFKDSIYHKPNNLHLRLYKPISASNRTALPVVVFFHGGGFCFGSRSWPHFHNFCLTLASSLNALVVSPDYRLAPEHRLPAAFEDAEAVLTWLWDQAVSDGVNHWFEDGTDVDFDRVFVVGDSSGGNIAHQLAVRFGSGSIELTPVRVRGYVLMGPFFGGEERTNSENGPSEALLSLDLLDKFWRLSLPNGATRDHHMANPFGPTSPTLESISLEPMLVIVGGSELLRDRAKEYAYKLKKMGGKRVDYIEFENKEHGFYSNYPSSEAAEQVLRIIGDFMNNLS

[3] = tested on: T2, CXE15^CXE20-NTα/β; assay: as above; format: biochemical, Arabidopsis thaliana; settings: 50 mM MES pH 6.0, 250 mM NaCl, 1 mM DTT; 5 μM enzyme
T2 construct: CXE15 core with its NTH replaced by the NT-α/β of CXE20 (one polypeptide)

[4] = tested on: T3, CXE20^CXE15-NTH; assay: as above; format: biochemical, Arabidopsis thaliana; settings: 50 mM MES pH 6.0, 250 mM NaCl, 1 mM DTT; 2 μM enzyme
T3 construct: CXE20 core with its NT-α/β replaced by the NTH of CXE15 (one polypeptide)

[5] = molecular target: T4, AtCXE20 (Arabidopsis thaliana, UniProt Q9LVB8); assay: as above; format: biochemical; settings: 50 mM MES pH 6.0, 250 mM NaCl, 1 mM DTT; 1 μM enzyme
T4 construct: gene CXE20; full length (residues 1-327; cap 1-26, core 53-327), codon-optimized synthetic gene, E. coli BL21(DE3), 6xHis-SUMO tag cleaved off
T4 sequence (Q9LVB8 1-327): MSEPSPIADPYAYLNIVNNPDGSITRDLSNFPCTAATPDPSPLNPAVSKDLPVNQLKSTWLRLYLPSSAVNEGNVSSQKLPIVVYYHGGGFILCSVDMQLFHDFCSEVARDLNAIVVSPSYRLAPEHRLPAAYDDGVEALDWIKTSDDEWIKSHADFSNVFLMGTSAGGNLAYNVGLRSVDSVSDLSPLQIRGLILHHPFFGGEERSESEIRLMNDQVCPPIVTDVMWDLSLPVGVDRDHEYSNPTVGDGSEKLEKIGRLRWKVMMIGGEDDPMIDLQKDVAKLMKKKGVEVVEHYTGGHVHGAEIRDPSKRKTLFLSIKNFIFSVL

[6] = molecular target: T1, AtCXE15; assay: differential scanning fluorimetry (Sypro Orange); format: binding; settings: 10 μM protein, 500 μM rac-GR24; 20 mM HEPES, 150 mM NaCl, 1 mM TCEP
[7] = molecular target: T1, AtCXE15; assay: X-ray crystal structure (soak), […] Å; format: binding; settings: covalent; D-ring of GR24 linked to S169; 1 mM rac-GR24 soak
[8] = molecular target: T4, AtCXE20; assay: differential scanning fluorimetry (Sypro Orange); format: binding; settings: 10 μM protein, 500 μM rac-GR24; 20 mM HEPES, 150 mM NaCl, 1 mM TCEP

CXE15^ΔNTH, sequence (Q9FG13 46-329, stated change not applied): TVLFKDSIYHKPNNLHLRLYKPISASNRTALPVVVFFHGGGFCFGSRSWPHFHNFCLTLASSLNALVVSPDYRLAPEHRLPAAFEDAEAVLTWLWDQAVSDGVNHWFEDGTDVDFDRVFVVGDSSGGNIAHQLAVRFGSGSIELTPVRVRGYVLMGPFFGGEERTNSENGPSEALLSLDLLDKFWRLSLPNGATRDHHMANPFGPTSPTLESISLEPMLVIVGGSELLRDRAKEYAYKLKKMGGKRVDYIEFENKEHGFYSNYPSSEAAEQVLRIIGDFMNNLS

SMILES	Km [1] [µM]	Km [2] [µM]	Km [3] [µM]	Km [4] [µM]	Km [5] [µM]	ΔTm [6]	X-ray crystal structure (soak), 2.3 Å [7]	ΔTm [8] [°C]
CCOC(=O)c1ccccc1-c1c2ccc(=O)cc-2oc2cc(OC3C=C(C)C(=O)O3)ccc12 (centres unmarked) [Yoshimulactone Green]	62 ± 12.6	21 ± 4.7	19.6 ± 2.5	7.5 ± 1.1	8.6 ± 2.3	–	–	–
CC1=CC(OC=C2C(=O)OC3c4ccccc4CC23)OC1=O (racemic) [rac-GR24]	–	–	–	–	–	+1.0 °C	hydrolyzed lactone D-ring of rac-GR24 covalently linked to S169 of the catalytic triad	−5.0
